Patent US20210100777A1, “HEAT SHOCK PROTEIN (HSP) INHIBITION AND MONITORING EFFECTIVENESS THEREOF” (H. LEE MOFFITT CANCER CENTER AND RESEARCH INSTITUTE, INC., priority 2013, published 2021)

What was measured:
HSPs in 8226/LR5 cells = test: DI-MRM relative quantification of HSPs after 17-DMAG (Example 2); format: cell-based, human; conditions: for CDC37 Fold Change, DI-MRM / HS90A Fold Change, DI-MRM / HS90B Fold Change, DI-MRM / HSP7C Fold Change, DI-MRM / HSP7E Fold Change, DI-MRM / HSP71 Fold Change, DI-MRM / HSP74 Fold Change, DI-MRM / HSPA5 Fold Change, DI-MRM / HSP90α Fold Change, DI-MRM: 8226/LR5, 50 nM, 24 hrs vs. control
Description: Synthesis and DI MRM of Standard Peptides. Standard peptides were synthesized and characterized as described previously (Remily-Wood et al., Proteomics Clin. Appl. 5:383-96 (2011)). An automated chip-based nanoelectrospray ion source, (NanoMate100, Advion BioSciences, Ithaca, N.Y.), was mounted on a triple quadrupole mass spectrometer (TSQ Vantage, Thermo, San Jose, Calif.). […] (SEQ ID NO:17) were diluted to 1 μM in 50% aqueous ACN with 0.1% formic acid. For synthetic peptide infusion, the spray voltage was tuned between 1.5 and 1.9 kV for stable ion signal. The gas pressure was set to 0.3 psi. Data were acquired at 20 ms per transition for 2 minutes using m/z 0.002 scan widths. The quadrupole resolution values were modulated from 0.2 to 0.7. […]
Cell Culture, Lysis, and HSP Sample Preparation for Mass Spectrometry. RPMI-8226 and 8226/LR5 cells were maintained as previously described (Bellamy et al., Cancer Res. 51:995-1002 (1991); Remily-Wood et al., Proteomics Clin. Appl. 5:383-96 (2011)). The heat shock protein 90 inhibitor, 17-desmethoxy-17-N,N-dimethylaminoethylamino-geldanamycin (17-DMAG), was dissolved in DMSO (100 μM stock). Based on prior IC50 measurements, the RPMI-8226 cells were treated with 100 nM 17-DMAG for 24 hours, and 8226/LR5 cells were treated with 50 nM 17-DMAG. Cells (n=10^6) were lysed using in aqueous 100 mM ammonium bicarbonate containing 8M urea for protein denaturation. Protein concentrations were measured by Bradford assays; consistent aliquots of total protein (380 ng) were injected for LC-MRM, and the same solutions were used for DI-MRM. Digestion, addition of SIS peptides, and mass spectrometry sample preparation were performed as described for standard proteins.
Calculation of Correction Factors to Account for Interference in DI MRM. […] To evaluate the ability to eliminate these contributions, correction factors were calculated based on LC-MRM data using the following set of equations (Equations 1 and 2): […]

[1] = system: vemurafenib sensitive and naïve cell lines; test: Cell cycle analysis, propidium iodide flow cytometry; format: cell-based; conditions: 300 nM, 24 hours
Description: FIGS. 15A, 15B, 15C, 15D, 15E, 15F, and 15G show the HSP90 inhibitor XL888 blocks the growth and survival of melanoma cell lines with diverse mechanisms of vemurafenib resistance. FIGS. 15A and 15B are graphs showing growth (%) of matched pairs of vemurafenib naïve and resistant melanoma cell lines and melanoma cell lines with intrinsic resistance. In FIG. 15A, cells were treated with increasing concentrations of vemurafenib (1 nM-10 μM: 72 hrs) before being subject to the MTT assay. […] FIGS. 15C to 15E are bar graphs showing the cell cycle effects of XL888 (300 nM: 24 hours) upon vemurafenib sensitive and naïve cell lines. Cells were fixed, stained with propidium iodide and distributions analyzed by flow cytometry. FIG. 15F-G are bar graphs showing that XL888 induced apoptosis in every model of acquired vemurafenib resistance tested. Cells were treated for either 72 or 144 hours with XL888 (300 nM) followed by Annexin-V. Apoptosis was measured by flow cytometry.

[2] = system: matched pairs of vemurafenib naïve and resistant melanoma cell lines and melanoma cell lines with intrinsic resistance; test: Growth inhibition, MTT assay; format: cell-based
Description: Growth inhibition. Cells were plated at a density of 2.5×10^4 cells per ml and left to grow overnight before being treated with increasing concentrations of vemurafenib or XL888. After 72 hours, the levels of growth inhibition were examined using the MTT assay (Smalley et al., Br. J. Cancer 96:445-9 (2007)). […] Vemurafenib and XL888 were dissolved in 100% DMSO and stored at −20° C. as a 10 mM solution.
Statistical analysis of GI50 values. Triplicate experiments were performed for each cell line under each drug treatment. To estimate the IC50 values for each cell line for each treatment, a 4-parameter Hill equation was used to model the nonlinear sigmoid relationship between the drug concentration and % cell survival. Briefly,
where x is the drug concentration, y is the % survival, ε is the error term. The four parameters in the model to estimate are: 1) the control-level effect (E); 2) the background-level effect (B); 3) the median effect concentration (GI50); and 4) the strength of the inhibition (m). The constraint of non-negative minimum background effect (B) is imposed so the model is biologically meaningful. Levenberg-Marquardt algorithm for nonlinear least squares was used to fit the model and estimate all four parameters for each cell line under each treatment. Estimated concentration at 50% cell survival, i.e., IC50, is estimated using the plugged-in parameters after model fitting. Note that when the control and background effects are 100% and 0%, respectively, the estimated GI50 and IC50 values would be identical. To compare the estimated IC50 values between the resistance and naïve paired of cell lines, after log transformation, a paired t-test was performed for each drug.

[3] = system: vemurafenib resistant melanoma cell lines grown as 3D collagen implanted spheroids; test: 3D spheroid assay; format: cell-based; conditions: 1 μM, 144 hours
Description: 3D spheroid assays. Melanoma spheroids were prepared using the liquid overlay method (Smalley et al. Mol Cancer Ther. 5: 1136-1144 (2006)). Spheroids were treated for 144 hours with either vehicle or 1 μM XL888 before being washed (3 times in media) and treated with calcein-AM and ethidium bromide (Molecular Probes, Eugene, Oreg.) for 1 hour at 37° C., to according to the manufacturer's instructions. Pictures of the invading spheroids were taken using a Nikon-300 inverted fluorescence microscope.

[4] = system: chymotrypsin like proteasome activity in M229R and 1205LuR cells; test: Proteasome-Glo Chymotrypsin-Like Cell Based Assay; conditions: 300 nM, 48 hours
Description: Measurement of proteasome activity. M229R and 1205LuR cells were harvested and plated at 7,500 cells per well in a white-walled 96 well plate. […] Proteasome activity was assessed using the Proteasome-Glo Chymotrypsin-Like Cell Based Assay (Promega; Madison, Wis.) and was measured in relative luminescence units (RLU).

[5] = all LC-MRM transitions, interference-corrected
[6] = noise corrected, only transitions below 40% interference

CO[C@H]1/C=C\C=C(/C)C(=O)NC2=CC(=O)C(NCCN(C)C)=C(C[C@@H](C)C[C@H](OC)[C@H](O)[C@@H](C)/C=C(\C)[C@@H]1OC(N)=O)C2=O [17-DMAG, 17-Dimethylaminoethylamino-17-demethoxygeldanamycin]
CDC37 Fold Change, DI-MRM (HSPs in 8226/LR5 cells; [5]): 1.24
HS90A Fold Change, DI-MRM (HSPs in 8226/LR5 cells; [5]): 1.12
HS90B Fold Change, DI-MRM (HSPs in 8226/LR5 cells; [5]): 1.23
HSP7C Fold Change, DI-MRM (HSPs in 8226/LR5 cells; [5]): 0.94
HSP7E Fold Change, DI-MRM (HSPs in 8226/LR5 cells; [5]): 0.93
HSP71 Fold Change, DI-MRM (HSPs in 8226/LR5 cells; [5]): 5.50
HSP74 Fold Change, DI-MRM (HSPs in 8226/LR5 cells; [5]): 1.33
HSPA5 Fold Change, DI-MRM (HSPs in 8226/LR5 cells; [5]): 0.86
CDC37 Fold Change, DI-MRM (HSPs in 8226/LR5 cells; [6]): 1.35
HS90A Fold Change, DI-MRM (HSPs in 8226/LR5 cells; [6]): 1.14
HS90B Fold Change, DI-MRM (HSPs in 8226/LR5 cells; [6]): 1.23
HSP7C Fold Change, DI-MRM (HSPs in 8226/LR5 cells; [6]): 1.14
HSP7E Fold Change, DI-MRM (HSPs in 8226/LR5 cells; [6]): 1.05
HSP71 Fold Change, DI-MRM (HSPs in 8226/LR5 cells; [6]): 5.51
HSP74 Fold Change, DI-MRM (HSPs in 8226/LR5 cells; [6]): 1.41
HSPA5 Fold Change, DI-MRM (HSPs in 8226/LR5 cells; [6]): 0.90
HSP90α Fold Change, DI-MRM (HSPs in 8226/LR5 cells; y3 (Least Interference)): 0.76
HSP90α Fold Change, DI-MRM (HSPs in 8226/LR5 cells; y3-y5 (DI-MRM Interference-Corrected)): 1.14
HSP90α Fold Change, DI-MRM (HSPs in 8226/LR5 cells; y3-y5 (Selected Transitions)): 1.13
HSP90α Fold Change, DI-MRM (HSPs in 8226/LR5 cells; y3-y6 (DI-MRM Interference-Corrected)): 1.12
changes in expression of HSP90α, DI-MRM (HSPs in 8226/LR5 cells; 8226/LR5, 24 hours after treatment): 1.1 fold

CC[C@@H](C)Nc1cc(C(=O)N[C@@H]2C[C@H]3CC[C@@H](C2)N3c2ccc(C(=O)C3CC3)cn2)c(C)cc1C(N)=O [XL888, 5-((R)-sec-butylamino)-N1-((1R,3s,5S)-8-(5-(cyclopropanecarbonyl)pyridin-2-yl)-8-azabicyclo[3.2.1]octan-3-yl)-2-methylterephthalamide]
cell cycle effect ([1]; WM164, M229, M229R, M249, M249R, 1205Lu, WM39): G1-phase cell cycle arrest
cell cycle effect ([1]; WM164R, 1205LuR, RPMI 7951): G2/M phase cell cycle arrest
growth of the cell lines ([2]; 1 nM-10 μM, 72 hours, MTT): dose dependent decreases in the growth of all the cell lines
difference in growth inhibition / IC50 between naïve and resistant pairs of cell lines ([2]; M229/M229R, M249/M249R, WM164/WM164R, 1205Lu/1205LuR, paired t-test): no significant difference in IC50 values
cell death in 3D spheroids [3]: effective at inducing cell death
inhibiting chymotrypsin like proteasome activity [4]: less effective than the MEK+PI3K inhibitor combination
